Measured values: patent US12568972B2, “Pyridazinol compounds and derivatives, preparation methods, herbicidal compositions and applications thereof” (Qingdao Kingagroot Chemical Compound Co., Ltd., priority 2018, dated 2026)

Experiments:
Assay in all cases: Post-emergence test, weed control effect
Assay type in all cases: in vivo
Settings in all cases: Dose 3000 g/ha, after 3 weeks
Amaranthus retroflexus = system: Amaranthus retroflexus
Summary of the method: (§1)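 Weeds grown from seed in soil-filled pots in a greenhouse were sprayed at the 2-3 leaf stage, 2-3 weeks after sowing, with compound in acetone/Tween-80/water plus 80% vegetable oil methyl ester synergist at 1500 g/ha. Fresh-weight inhibition was scored on a 0-10 scale after 3 weeks.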

Veronica polita = system: Veronica polita
Summary of the method: as §1

Rorippa indica = system: Rorippa indica
Summary of the method: as §1

Chenopodiaceae = system: Chenopodiaceae
Summary of the method: as §1

Cc1ccc(S(=O)(=O)Oc2cc(C(F)(F)F)nnc2-c2ccc(F)c(F)c2)cc1 [Compound 1-127]
10: weed control effect, Amaranthus retroflexus (activity level) (Amaranthus retroflexus) | weed control effect, Veronica polita (activity level) (Veronica polita) | weed control effect, Rorippa indica (activity level) (Rorippa indica) | weed control effect, Chenopodiaceae (activity level) (Chenopodiaceae)

O=S(=O)(Oc1cc(C(F)(F)F)nnc1-c1ccc(F)c(F)c1)c1ccc(Cl)cc1F [Compound 1-128]
10: weed control effect, Amaranthus retroflexus (activity level) (Amaranthus retroflexus) | weed control effect, Veronica polita (activity level) (Veronica polita) | weed control effect, Rorippa indica (activity level) (Rorippa indica) | weed control effect, Chenopodiaceae (activity level) (Chenopodiaceae)

O=S(=O)(Oc1cc(C(F)(F)F)nnc1-c1ccc(F)c(F)c1)c1ccc(C(F)(F)F)cc1 [Compound 1-129]
10: weed control effect, Amaranthus retroflexus (activity level) (Amaranthus retroflexus) | weed control effect, Veronica polita (activity level) (Veronica polita) | weed control effect, Rorippa indica (activity level) (Rorippa indica) | weed control effect, Chenopodiaceae (activity level) (Chenopodiaceae)

O=S(=O)(Oc1cc(C(F)(F)F)nnc1-c1ccc(F)c(F)c1)c1ccc(Cl)cc1 [Compound 1-130]
10: weed control effect, Amaranthus retroflexus (activity level) (Amaranthus retroflexus) | weed control effect, Veronica polita (activity level) (Veronica polita) | weed control effect, Rorippa indica (activity level) (Rorippa indica) | weed control effect, Chenopodiaceae (activity level) (Chenopodiaceae)

Cc1cc(C)c(S(=O)(=O)Oc2cc(C(F)(F)F)nnc2-c2ccccc2)c(C)c1 [Compound 1-131]
10: weed control effect, Amaranthus retroflexus (activity level) (Amaranthus retroflexus) | weed control effect, Veronica polita (activity level) (Veronica polita) | weed control effect, Rorippa indica (activity level) (Rorippa indica) | weed control effect, Chenopodiaceae (activity level) (Chenopodiaceae)

Cc1ccc(S(=O)(=O)Oc2cc(C(F)(F)F)nnc2-c2ccc(F)cc2)cc1 [Compound 1-132]
10: weed control effect, Amaranthus retroflexus (activity level) (Amaranthus retroflexus) | weed control effect, Veronica polita (activity level) (Veronica polita) | weed control effect, Rorippa indica (activity level) (Rorippa indica) | weed control effect, Chenopodiaceae (activity level) (Chenopodiaceae)

O=S(=O)(Oc1cc(C(F)(F)F)nnc1-c1ccc(F)cc1)c1ccc(Cl)cc1Cl [Compound 1-133]
10: weed control effect, Amaranthus retroflexus (activity level) (Amaranthus retroflexus) | weed control effect, Veronica polita (activity level) (Veronica polita) | weed control effect, Rorippa indica (activity level) (Rorippa indica) | weed control effect, Chenopodiaceae (activity level) (Chenopodiaceae)

O=S(=O)(Oc1cc(C(F)(F)F)nnc1-c1ccc(F)cc1)c1ccc(F)cc1 [Compound 1-134]
10: weed control effect, Amaranthus retroflexus (activity level) (Amaranthus retroflexus) | weed control effect, Veronica polita (activity level) (Veronica polita) | weed control effect, Rorippa indica (activity level) (Rorippa indica) | weed control effect, Chenopodiaceae (activity level) (Chenopodiaceae)

O=[N+]([O-])c1ccc(S(=O)(=O)Oc2cc(C(F)(F)F)nnc2-c2ccc(F)c(F)c2)cc1 [Compound 1-135]
10: weed control effect, Amaranthus retroflexus (activity level) (Amaranthus retroflexus) | weed control effect, Veronica polita (activity level) (Veronica polita) | weed control effect, Rorippa indica (activity level) (Rorippa indica) | weed control effect, Chenopodiaceae (activity level) (Chenopodiaceae)

O=S(=O)(Oc1cc(C(F)(F)F)nnc1-c1ccccc1)c1cc(Cl)c(Cl)cc1Cl [Compound 1-136]
10: weed control effect, Amaranthus retroflexus (activity level) (Amaranthus retroflexus) | weed control effect, Veronica polita (activity level) (Veronica polita) | weed control effect, Rorippa indica (activity level) (Rorippa indica) | weed control effect, Chenopodiaceae (activity level) (Chenopodiaceae)

CS(=O)(=O)c1ccc(S(=O)(=O)Oc2cc(C(F)(F)F)nnc2-c2ccc(F)cc2)cc1 [Compound 1-137]
10: weed control effect, Amaranthus retroflexus (activity level) (Amaranthus retroflexus) | weed control effect, Veronica polita (activity level) (Veronica polita) | weed control effect, Rorippa indica (activity level) (Rorippa indica) | weed control effect, Chenopodiaceae (activity level) (Chenopodiaceae)

O=S(=O)(Oc1cc(C(F)(F)F)nnc1-c1ccc(F)c(F)c1)c1cc(F)c(Br)cc1F [Compound 1-138]
10: weed control effect, Amaranthus retroflexus (activity level) (Amaranthus retroflexus) | weed control effect, Veronica polita (activity level) (Veronica polita) | weed control effect, Rorippa indica (activity level) (Rorippa indica) | weed control effect, Chenopodiaceae (activity level) (Chenopodiaceae)

O=S(=O)(Oc1cc(C(F)(F)F)nnc1-c1ccc(Cl)cc1)c1cccc(OC(F)F)c1 [Compound 1-139]
10: weed control effect, Amaranthus retroflexus (activity level) (Amaranthus retroflexus) | weed control effect, Veronica polita (activity level) (Veronica polita) | weed control effect, Rorippa indica (activity level) (Rorippa indica) | weed control effect, Chenopodiaceae (activity level) (Chenopodiaceae)

CC(=O)c1cccc(S(=O)(=O)Oc2cc(C(F)(F)F)nnc2-c2ccccc2)c1 [Compound 1-140]
10: weed control effect, Amaranthus retroflexus (activity level) (Amaranthus retroflexus) | weed control effect, Veronica polita (activity level) (Veronica polita) | weed control effect, Rorippa indica (activity level) (Rorippa indica) | weed control effect, Chenopodiaceae (activity level) (Chenopodiaceae)

NC(=O)c1ccc(S(=O)(=O)Oc2cc(C(F)(F)F)nnc2-c2ccc(C(F)(F)F)cc2)cc1 [Compound 1-141]
10: weed control effect, Amaranthus retroflexus (activity level) (Amaranthus retroflexus) | weed control effect, Veronica polita (activity level) (Veronica polita) | weed control effect, Rorippa indica (activity level) (Rorippa indica) | weed control effect, Chenopodiaceae (activity level) (Chenopodiaceae)

O=S(=O)(Oc1cc(C(F)(F)F)nnc1-c1ccc(F)c(Cl)c1)c1ccc(Oc2ccc(F)cc2)cc1 [Compound 1-142]
10: weed control effect, Amaranthus retroflexus (activity level) (Amaranthus retroflexus) | weed control effect, Veronica polita (activity level) (Veronica polita) | weed control effect, Rorippa indica (activity level) (Rorippa indica) | weed control effect, Chenopodiaceae (activity level) (Chenopodiaceae)

O=S(=O)(Cc1ccccc1)Oc1cc(C(F)(F)F)nnc1-c1ccc(F)cc1 [Compound 1-143]
10: weed control effect, Amaranthus retroflexus (activity level) (Amaranthus retroflexus) | weed control effect, Veronica polita (activity level) (Veronica polita) | weed control effect, Rorippa indica (activity level) (Rorippa indica) | weed control effect, Chenopodiaceae (activity level) (Chenopodiaceae)

O=S(=O)(Oc1cc(C(F)(F)F)nnc1-c1ccc(C(F)(F)F)cc1)c1cccc2ccccc12 [Compound 1-144]
10: weed control effect, Amaranthus retroflexus (activity level) (Amaranthus retroflexus) | weed control effect, Veronica polita (activity level) (Veronica polita) | weed control effect, Rorippa indica (activity level) (Rorippa indica) | weed control effect, Chenopodiaceae (activity level) (Chenopodiaceae)

CCc1cccc(-c2nnc(C(F)(F)F)cc2OS(=O)(=O)c2nccs2)c1 [Compound 1-145]
10: weed control effect, Amaranthus retroflexus (activity level) (Amaranthus retroflexus) | weed control effect, Veronica polita (activity level) (Veronica polita) | weed control effect, Rorippa indica (activity level) (Rorippa indica) | weed control effect, Chenopodiaceae (activity level) (Chenopodiaceae)

O=S(=O)(Oc1cc(C(F)(F)F)nnc1-c1cccc(F)c1)c1ccc(Oc2ccccc2)nc1 [Compound 1-146]
10: weed control effect, Amaranthus retroflexus (activity level) (Amaranthus retroflexus) | weed control effect, Veronica polita (activity level) (Veronica polita) | weed control effect, Rorippa indica (activity level) (Rorippa indica) | weed control effect, Chenopodiaceae (activity level) (Chenopodiaceae)

O=S(=O)(Oc1cc(C(F)(F)F)nnc1-c1ccc(F)c(F)c1)c1ccc2ncsc2c1 [Compound 1-147]
10: weed control effect, Amaranthus retroflexus (activity level) (Amaranthus retroflexus) | weed control effect, Veronica polita (activity level) (Veronica polita) | weed control effect, Rorippa indica (activity level) (Rorippa indica) | weed control effect, Chenopodiaceae (activity level) (Chenopodiaceae)

O=S(=O)(Oc1cc(C(F)(F)F)nnc1-c1ccc(C(F)(F)F)cc1)c1ccc2oncc2c1 [Compound 1-148]
10: weed control effect, Amaranthus retroflexus (activity level) (Amaranthus retroflexus) | weed control effect, Veronica polita (activity level) (Veronica polita) | weed control effect, Rorippa indica (activity level) (Rorippa indica) | weed control effect, Chenopodiaceae (activity level) (Chenopodiaceae)

CCc1cccc(-c2nnc(C(F)(F)F)cc2OS(=O)(=O)c2cc3ccccc3s2)c1 [Compound 1-149]
10: weed control effect, Amaranthus retroflexus (activity level) (Amaranthus retroflexus) | weed control effect, Veronica polita (activity level) (Veronica polita) | weed control effect, Rorippa indica (activity level) (Rorippa indica) | weed control effect, Chenopodiaceae (activity level) (Chenopodiaceae)

Cn1ccnc1S(=O)(=O)Oc1cc(C(F)(F)F)nnc1-c1cccc(F)c1 [Compound 1-150]
10: weed control effect, Amaranthus retroflexus (activity level) (Amaranthus retroflexus) | weed control effect, Veronica polita (activity level) (Veronica polita) | weed control effect, Rorippa indica (activity level) (Rorippa indica) | weed control effect, Chenopodiaceae (activity level) (Chenopodiaceae)

Cn1cc(S(=O)(=O)Oc2cc(C(F)(F)F)nnc2-c2cccc(F)c2)cn1 [Compound 1-151]
10: weed control effect, Amaranthus retroflexus (activity level) (Amaranthus retroflexus) | weed control effect, Veronica polita (activity level) (Veronica polita) | weed control effect, Rorippa indica (activity level) (Rorippa indica) | weed control effect, Chenopodiaceae (activity level) (Chenopodiaceae)

Cn1ccc2ccc(S(=O)(=O)Oc3cc(C(F)(F)F)nnc3-c3ccc(F)c(F)c3)cc21 [Compound 1-152]
10: weed control effect, Amaranthus retroflexus (activity level) (Amaranthus retroflexus) | weed control effect, Veronica polita (activity level) (Veronica polita) | weed control effect, Rorippa indica (activity level) (Rorippa indica) | weed control effect, Chenopodiaceae (activity level) (Chenopodiaceae)

CCc1cccc(-c2nnc(C(F)(F)F)cc2OS(=O)(=O)c2nc3ccccc3[nH]2)c1 [Compound 1-153]
10: weed control effect, Amaranthus retroflexus (activity level) (Amaranthus retroflexus) | weed control effect, Veronica polita (activity level) (Veronica polita) | weed control effect, Rorippa indica (activity level) (Rorippa indica) | weed control effect, Chenopodiaceae (activity level) (Chenopodiaceae)

CCCCCCCCC(=S)Oc1cc(C(F)(F)F)nnc1-c1ccc(F)cc1 [Compound 1-154]
10: weed control effect, Amaranthus retroflexus (activity level) (Amaranthus retroflexus) | weed control effect, Veronica polita (activity level) (Veronica polita) | weed control effect, Rorippa indica (activity level) (Rorippa indica) | weed control effect, Chenopodiaceae (activity level) (Chenopodiaceae)
